Experimental data taken from patent publication US6828473B2, “Modulation of PDE11A activity” (Pfizer Inc., priority 2000, dated 2004).
Structures can show the parent of a compound that is named as a salt.

How the values were obtained:
[1] = system: pre-ejaculated epididymal murine spermatozoa; experiment: Sperm capacitation measured with chlorotetracycline (CTC); format: cell-based, mouse; conditions: for number of capacitated sperm: P<0.001
Description: The extent of capacitation was measured using chlorotetracycline (CTC) and the degree of capacitation was assessed in control and adenosine-5′-triphosphate (ATP)-treated samples. All data is expressed as mean+s.e.mean, n=3, ***=P<0.001, Student's t-test).
Sperm suspensions were prepared by releasing the contents of mouse epididymides from 3 PDE11 knockout (KO) and 3 wild type (WT) mice into Tyrodes media. The extent of capacitation was measured using chlorotetracycline (CTC), 750 μM for 15 min at 37° C. The patterns of CTC fluorescence were observed under microscopy (Reference: Fraser, L. R. & Herod, J. E. Expression of capacitation-dependent changes in chlortetracycline fluorescence patterns in mouse spermatozoa requires a suitable glycolysable substrate. J. Reprod. Fert., 1990; 88(2): 611-21). Patterns reflected the functional state of spermatozoa, i.e. capacitated, uncapacitated and acrosome loss.

recombinant human PDE7 = experiment: PDE inhibition SPA assay, PDE7; format: biochemical; conditions: geometric mean of at least 3 determinations; substrate <= 1/3 Km
[2] = molecular target: T1, PDE6 isolated from bovine retina (Bos taurus, UniProt P11541+P23439); experiment: PDE inhibition SPA assay, PDE6; format: biochemical
T1 construct: PDE6 was isolated from bovine retina; from tissue; host or cells: bovine retina
T1 sequence (P11541 2-856 limits assumed): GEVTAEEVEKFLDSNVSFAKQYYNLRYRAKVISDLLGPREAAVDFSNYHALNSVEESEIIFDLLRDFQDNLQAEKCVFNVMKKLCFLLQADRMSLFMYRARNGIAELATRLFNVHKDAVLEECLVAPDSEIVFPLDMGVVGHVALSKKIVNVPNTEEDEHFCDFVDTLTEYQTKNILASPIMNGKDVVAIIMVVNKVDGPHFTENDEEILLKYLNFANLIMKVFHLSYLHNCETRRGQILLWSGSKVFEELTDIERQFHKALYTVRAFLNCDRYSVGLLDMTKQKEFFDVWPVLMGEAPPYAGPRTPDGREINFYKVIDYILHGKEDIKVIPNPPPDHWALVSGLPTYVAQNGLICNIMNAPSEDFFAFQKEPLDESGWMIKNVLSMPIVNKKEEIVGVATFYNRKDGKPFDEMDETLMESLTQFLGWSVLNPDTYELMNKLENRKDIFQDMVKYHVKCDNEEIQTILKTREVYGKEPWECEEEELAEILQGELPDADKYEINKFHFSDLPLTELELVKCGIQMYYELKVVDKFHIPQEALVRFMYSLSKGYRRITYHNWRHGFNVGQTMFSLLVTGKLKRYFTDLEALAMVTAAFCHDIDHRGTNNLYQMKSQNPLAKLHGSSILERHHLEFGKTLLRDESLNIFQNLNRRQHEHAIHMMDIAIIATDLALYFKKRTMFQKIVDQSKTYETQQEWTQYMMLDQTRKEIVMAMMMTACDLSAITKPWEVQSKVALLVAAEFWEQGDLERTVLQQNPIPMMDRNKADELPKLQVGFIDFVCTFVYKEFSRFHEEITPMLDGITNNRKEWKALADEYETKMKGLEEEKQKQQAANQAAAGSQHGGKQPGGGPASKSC
T1 sequence (P23439 2-850 limits assumed): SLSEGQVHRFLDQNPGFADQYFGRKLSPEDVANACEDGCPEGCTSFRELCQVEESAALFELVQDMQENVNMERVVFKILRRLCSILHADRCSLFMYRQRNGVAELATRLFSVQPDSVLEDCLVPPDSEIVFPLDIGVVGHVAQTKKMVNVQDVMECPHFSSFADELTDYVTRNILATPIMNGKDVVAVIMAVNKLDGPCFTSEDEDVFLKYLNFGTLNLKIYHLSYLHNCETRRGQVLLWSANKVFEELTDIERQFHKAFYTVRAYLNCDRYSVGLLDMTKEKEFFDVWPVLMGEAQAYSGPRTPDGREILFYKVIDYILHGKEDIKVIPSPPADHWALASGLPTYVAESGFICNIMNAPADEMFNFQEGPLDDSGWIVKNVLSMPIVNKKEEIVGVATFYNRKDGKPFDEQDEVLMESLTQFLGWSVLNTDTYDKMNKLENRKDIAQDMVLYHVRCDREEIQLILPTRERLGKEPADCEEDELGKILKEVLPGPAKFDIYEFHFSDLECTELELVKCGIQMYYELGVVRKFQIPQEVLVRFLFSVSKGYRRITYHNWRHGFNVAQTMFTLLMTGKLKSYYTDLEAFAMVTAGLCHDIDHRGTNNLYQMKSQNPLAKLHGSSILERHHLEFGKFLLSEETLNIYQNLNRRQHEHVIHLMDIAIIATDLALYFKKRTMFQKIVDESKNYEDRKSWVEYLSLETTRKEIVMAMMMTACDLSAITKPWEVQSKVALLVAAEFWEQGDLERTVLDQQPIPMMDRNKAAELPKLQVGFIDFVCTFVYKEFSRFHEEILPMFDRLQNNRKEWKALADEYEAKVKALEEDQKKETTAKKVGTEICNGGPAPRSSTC

recombinant human PDE8 = experiment: PDE inhibition SPA assay, PDE8; format: biochemical; conditions: geometric mean of at least 3 determinations; substrate <= 1/3 Km

IC50 (recombinant human PDE7)	IC50 [2]	IC50 (recombinant human PDE8)	SMILES	number of capacitated murine spermatozoa ([1]; 1 hr incubation, both PDE11 KO and WT samples, concentration not given)	number of capacitated sperm ([1]; ATP 1.0 mM, spermatozoa obtained from PDE11 KO mice only)	number of capacitated sperm ([1]; ATP 2.5 mM, 1 hr incubation, all murine spermatozoa samples (PDE11 KO and WT))
			Nc1ncnc2c1ncn2[C@@H]1O[C@H](COP(=O)(O)OP(=O)(O)OP(=O)(O)O)[C@@H](O)[C@H]1O [ATP, adenosine-5′-triphosphate]	significantly increased	significantly increased	significantly increased
> 100 µM	4.7 µM	> 100 µM	O=C(O)C1CCN(c2nc(NCc3ccc4c(c3)OCO4)c3cc(Cl)ccc3n2)CC1 [UK-227,786 (E4021), 1-[4-[(1,3-benzodioxol-5-ylmethyl)amino]-6-chloro-2-quinazolinyl]-4-piperidinecarboxylic acid, monohydrochloride]			
> 100 µM		> 100 µM	CN1CC(=O)N2[C@H](c3ccc4c(c3)OCO4)c3[nH]c4ccccc4c3C[C@@H]2C1=O [UK-336,017 (IC351), (6R, 12aR)-6-(1,3-benzodioxol-5-yl)-2,3,6,7,12,12a-hexahydro-2-methyl-pyrazino[1′,2′:1,6]pyrido[3,4-b]indole-1,4-dione]			

SMILES	IC50 (recombinant human PDE7)	IC50 [2]	IC50 (recombinant human PDE8)	number of capacitated murine spermatozoa ([1]; 1 hr incubation, both PDE11 KO and WT samples, concentration not given)	number of capacitated sperm ([1]; ATP 1.0 mM, spermatozoa obtained from PDE11 KO mice only)	number of capacitated sperm ([1]; ATP 2.5 mM, 1 hr incubation, all murine spermatozoa samples (PDE11 KO and WT))
CCCc1nn(C)c2c(=O)[nH]c(-c3cc(S(=O)(=O)N4CCN(C)CC4)ccc3OCC)nc12 [Sildenafil, sildenafil]	19.7 µM					
